Test results from patent EP0797564B1, “LIGNANS, A PROCESS FOR THEIR PRODUCTION AND PHARMACEUTICAL COMPOSITIONS AND USES THEREOF” (KANOLDT ARZNEIMITTEL GMBH, priority 1995, dated 1997).

What was measured:
SHBG [1] = biological target: T1, SHBG (Homo sapiens, UniProt P04278); test: Concentration dependence: remaining SHBG activity to 5α-dihydrotestosterone (DHT) with varying concentrations of the compounds; assay type: binding; details: DHT concentration of 9.6 nM
T1 sequence (P04278 30-402): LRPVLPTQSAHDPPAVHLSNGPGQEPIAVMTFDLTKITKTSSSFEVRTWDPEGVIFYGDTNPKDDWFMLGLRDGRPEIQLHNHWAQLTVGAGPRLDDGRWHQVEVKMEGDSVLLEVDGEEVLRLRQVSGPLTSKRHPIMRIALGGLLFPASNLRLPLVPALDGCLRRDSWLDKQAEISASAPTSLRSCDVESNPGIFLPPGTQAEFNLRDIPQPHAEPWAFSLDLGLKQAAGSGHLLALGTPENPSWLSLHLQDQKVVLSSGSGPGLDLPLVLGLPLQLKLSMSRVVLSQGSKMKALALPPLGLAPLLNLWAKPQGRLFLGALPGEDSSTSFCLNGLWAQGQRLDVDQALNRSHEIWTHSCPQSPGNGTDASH
Method: In order to determine the strength of the interaction of the compounds produced according to the present invention, tests were carried out investigating remaining SHBG activity to 5α-dihydrotestosterone (DHT) with varying concentrations of the compounds, DHT being a natural hormone that binds with SHBG.

SHBG [2] = biological target: T1, SHBG; test: Estimation of equilibrium (association) constants Ka inhibitor/SHBG, assuming competitive binding; details: association constant inhibitor/SHBG; Table 3
Text: With the assumption of competitive binding the estimation of equilibrium constants is possible. Two reactions exist in competition with one another: [drawing 50] [drawing 51]

SMILES	Remaining SHBG Activity (SHBG [1]; @ 3.2*10^-4M compound) [% @ 3.2*10^-4M]	Ka (SHBG [2]) [M⁻¹]	Remaining SHBG Activity (SHBG [1]; @ 6.2*10^-4M compound) [% @ 6.2*10^-4M]	Remaining SHBG Activity (SHBG [1]; @ 6*10^-4M compound) [% @ 6*10^-4M]
COc1cc(CC(CO)C(CO)Cc2ccc(O)c(OC)c2)ccc1O (centres unmarked) [IIIa]	50	20000		
COc1cc(CC2COC(C)(C)OCC2Cc2ccc(O)c(OC)c2)ccc1O (centres unmarked) [III'a]			75	
COC(=O)C(Cc1ccc(O)c(OC)c1)C(Cc1ccc(O)c(OC)c1)C(=O)OC (centres unmarked) [IIa]		60000		30
